The text below walks through data of PubChem BioAssay (NCI).

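Grown in 96-well plates, cells were treated for 48 hours with each compound at five concentrations. Insufficient inhibition: endpoint recorded as highest concentration tested. TGI: total growth inhibition.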

Test systems include U251 CNS; OVCAR-8 ovarian; UACC-257 melanoma; NCI-H226 lung; 786-0 renal; MALME-3M melanoma; HL-60(TB) leukemia; SK-OV-3 ovarian; NCI-H23 lung; SF-295 CNS; SF-268 CNS; SF-539 CNS; K-562 leukemia; IGROV1 ovarian; HCC-2998 colon; UO-31 renal; RPMI-8226 leukemia.
Common to all, as to assay: DTP human tumour cell line panel, 48 h

Usually TGI stands for the concentration at which net growth stops. The low end stands for greater sensitivity of the cells, the high end for lower sensitivity of the cells. Consider `CCOC(=O)c1nc2ccc(Cl)cc2c2c1CCO2`, for which the TGI in the experiment on U251 CNS, in the experiment with OVCAR-8 ovarian, in the experiment on UACC-257 melanoma, in the experiment with NCI-H226 lung, in the experiment on 786-0 renal and in the experiment with MALME-3M melanoma was greater than 100 µM each time. Further, the concentration for total growth inhibition (TGI) with HL-60(TB) leukemia, with SK-OV-3 ovarian, in the experiment on NCI-H23 lung, with SF-295 CNS, in the experiment on SF-268 CNS and in the experiment with SF-539 CNS was greater than 100 µM each time. The TGI with K-562 leukemia, in the experiment with IGROV1 ovarian and with HCC-2998 colon was greater than 100 µM each time.
Turning to `O=C1C(Cl)C(c2ccc(Cl)cc2)N1n1cnc2ccccc2c1=O` (stereo unspecified), the TGI in the experiment on UO-31 renal, in the experiment with U251 CNS, with OVCAR-8 ovarian, in the experiment on UACC-257 melanoma, in the experiment on NCI-H226 lung and with 786-0 renal was greater than 100 µM in each case. In addition, the concentration for total growth inhibition (TGI) in the experiment with MALME-3M melanoma, with HL-60(TB) leukemia, in the experiment on SK-OV-3 ovarian, in the experiment with RPMI-8226 leukemia, in the experiment with NCI-H23 lung and in the experiment with SF-295 CNS was greater than 100 µM in each case. For the same molecule, the concentration for total growth inhibition (TGI) in the experiment on SF-268 CNS, in the experiment on K-562 leukemia, in the experiment with IGROV1 ovarian and in the experiment on HCC-2998 colon was greater than 100 µM each time.
As to `Cn1c(=O)c2c(nc(C[N+]3([O-])CCOCC3)n2C)n(C)c1=O`, the TGI in the experiment with UO-31 renal, with U251 CNS, in the experiment on OVCAR-8 ovarian, with UACC-257 melanoma, in the experiment on NCI-H226 lung and in the experiment on 786-0 renal was greater than 100 µM throughout. The TGI in the experiment on MALME-3M melanoma, with HL-60(TB) leukemia, with SK-OV-3 ovarian, in the experiment on RPMI-8226 leukemia, with NCI-H23 lung and in the experiment on SF-268 CNS was greater than 100 µM each time. Further, the total growth inhibition concentration (TGI) with SF-539 CNS, with K-562 leukemia, with IGROV1 ovarian and with HCC-2998 colon was greater than 100 µM in each case.
For `NC12CC3CC(C1)CC(Cl)(C3)C2`, the concentration for total growth inhibition (TGI) with UO-31 renal, in the experiment with U251 CNS, with OVCAR-8 ovarian, with UACC-257 melanoma, in the experiment with 786-0 renal and in the experiment with MALME-3M melanoma was greater than 100 µM throughout. Moreover, the TGI in the experiment on HL-60(TB) leukemia, with SK-OV-3 ovarian, in the experiment on RPMI-8226 leukemia, with NCI-H23 lung, in the experiment with SF-539 CNS and in the experiment on K-562 leukemia was greater than 100 µM each time. For the same molecule, the concentration for total growth inhibition (TGI) with IGROV1 ovarian and in the experiment with HCC-2998 colon was greater than 100 µM throughout.
`COc1cccc(/C(C=O)=C(\Cl)c2ccc(OC)c(OC)c2)c1`: the TGI in the experiment with UO-31 renal stood at 28.2 µM; in the experiment on U251 CNS it was 27.4 µM; with OVCAR-8 ovarian it was 30.3 µM; in the experiment on UACC-257 melanoma, 29.3 µM; with NCI-H226 lung, 28.1 µM; in the experiment on 786-0 renal, 30.7 µM. The TGI in the experiment on MALME-3M melanoma was determined as 29 µM; in the experiment on HL-60(TB) leukemia, 20.7 µM; in the experiment on SK-OV-3 ovarian it was 58.8 µM; in the experiment with RPMI-8226 leukemia, 48.8 µM; in the experiment on NCI-H23 lung, 24.9 µM; with SF-295 CNS, 28.9 µM. The TGI amounted to 25.3 µM in the experiment on SF-268 CNS; 30.4 µM in the experiment on SF-539 CNS; 46.2 µM in the experiment with K-562 leukemia; 41.8 µM in the experiment on IGROV1 ovarian; 29.8 µM with HCC-2998 colon.
For the molecule `NC1=NC2(O)c3ccccc3C(=O)C2(O)N1` (stereo unspecified), the TGI in the experiment on U251 CNS, in the experiment with OVCAR-8 ovarian, in the experiment on UACC-257 melanoma, in the experiment with NCI-H226 lung, with 786-0 renal and with MALME-3M melanoma was greater than 100 µM each time. Further, the concentration for total growth inhibition (TGI) in the experiment with HL-60(TB) leukemia, in the experiment on SK-OV-3 ovarian, in the experiment with RPMI-8226 leukemia, with NCI-H23 lung, with SF-295 CNS and in the experiment on SF-268 CNS was greater than 100 µM in each case. In addition, the TGI in the experiment with SF-539 CNS, in the experiment with K-562 leukemia and with IGROV1 ovarian was greater than 100 µM in each case.
On to `COc1ccc(-c2onc(-c3c(C)cc(C)cc3C)c2C2=NCCCN2)cc1`, for which the TGI in the experiment on UO-31 renal was greater than 100 µM; in the experiment on U251 CNS it was 57.9 µM; in the experiment on OVCAR-8 ovarian, greater than 100 µM; with UACC-257 melanoma it was 70.1 µM; in the experiment on NCI-H226 lung, greater than 100 µM; in the experiment on 786-0 renal it was greater than 100 µM. Besides, the TGI was greater than 100 µM in the experiment on MALME-3M melanoma; 38.6 µM with HL-60(TB) leukemia; greater than 100 µM in the experiment on SK-OV-3 ovarian; 86.5 µM in the experiment on RPMI-8226 leukemia; greater than 100 µM in the experiment on NCI-H23 lung; 56.6 µM in the experiment on SF-295 CNS. Further, the concentration for total growth inhibition (TGI) in the experiment with SF-268 CNS is greater than 100 µM; in the experiment with SF-539 CNS, 53.7 µM; in the experiment with K-562 leukemia, greater than 100 µM; with IGROV1 ovarian, greater than 100 µM; in the experiment on HCC-2998 colon, greater than 100 µM.
As to `CCOC(=O)C1=C(O)c2ccccc2C(=O)C1=O`, the concentration for total growth inhibition (TGI) in the experiment on UO-31 renal, with U251 CNS, in the experiment on OVCAR-8 ovarian, in the experiment on UACC-257 melanoma, with NCI-H226 lung and in the experiment on 786-0 renal was greater than 100 µM throughout. In addition, the concentration for total growth inhibition (TGI) in the experiment on MALME-3M melanoma, in the experiment with HL-60(TB) leukemia, with SK-OV-3 ovarian, with RPMI-8226 leukemia, in the experiment on NCI-H23 lung and in the experiment on SF-295 CNS was greater than 100 µM each time. Further, the total growth inhibition concentration (TGI) with SF-268 CNS, in the experiment with SF-539 CNS, with K-562 leukemia, with IGROV1 ovarian and in the experiment on HCC-2998 colon was greater than 100 µM each time.
Turning to `CCOC(OCC)c1ccc(/C=C/c2cc(OC)c(OC)c(OC)c2)cc1`, the TGI is 45.7 µM with UO-31 renal; 32.2 µM in the experiment with U251 CNS; 76.3 µM in the experiment with OVCAR-8 ovarian; 51.2 µM with UACC-257 melanoma; 62.5 µM in the experiment on NCI-H226 lung; 60.1 µM in the experiment with 786-0 renal. The TGI turned out to be 43.8 µM in the experiment on MALME-3M melanoma; 30.1 µM with HL-60(TB) leukemia; 63 µM in the experiment on RPMI-8226 leukemia; 40.4 µM in the experiment on SF-295 CNS; 71.8 µM in the experiment on SF-268 CNS; 29.8 µM in the experiment with SF-539 CNS. Besides, the TGI in the experiment with K-562 leukemia was 39.8 µM; in the experiment on IGROV1 ovarian, greater than 100 µM.
